Source: article PMC7076515, “Impact of Mucin on Drug Diffusion: Development of a Straightforward In Vitro Method for the Determination of Drug Diffusivity in the Presence of Mucin” (Pharmaceutics, 2020)
“Also recorded” adds a separate entry of the source.

What was measured:
[1] = UV-visible localized spectroscopy: drug diffusion coefficient in water (D0); conditions: no mucin; drug in PBS 65 mOsm/kg pH 7.4 injected into water; 23–25 °C; average of two parallel experiments
[2] = system: mucin from porcine stomach type III; test: UV-visible localized spectroscopy: diffusion from mucin dispersions into water (Drel), and of mucin itself; type: physicochemical; conditions: compared to the absence of mucin
Excerpt: Mucin type III from porcine stomach was dispersed in PBS 65 mOsm/kg (pH 7.4) to obtain 0.1, 0.3 and 0.6% (w/w) mucin dispersions.
In brief, Fick’s second law of diffusion was analytically solved (Equation (1)) assuming times (t) and positions (x) such that t ≪ h2/D and x ≪ h (where h is the full length of the cuvette occupied by water, 3.30 cm). […] (1) c(x,t)=2A/π e^−x^2/2σ^2+4Dt/2σ^2+4Dt

[3] = set-up: method as in Drugbank [15]; conditions: ref Drugbank [15], cited from earlier work
[4] = set-up: method as in PMID 9188047, PMID 9487548; conditions: ref [24],[25]; cited from earlier work
[5] = system: purified gastric mucin type II; set-up: method as in PMID 9188047, PMID 9487548; conditions: ref [24],[25]; cited from earlier work

SMILES	D0 (diffusion coefficient in plain water) [1]	D Reduction (%) ([2]; MUC 0.0%)	D Reduction (%) ([2]; MUC 0.1% w/w)	D Reduction (%) ([2]; MUC 0.3% w/w)	D Reduction (%) ([2]; MUC 0.6% w/w)	Charge at pH 7.4 [3]	pKa [3]	Diffusion in native pig intestinal mucus [4]	Diffusion in purified gastric mucin versus phosphate buffer [5]
CC(C)NCC(O)COc1ccc(CC(N)=O)cc1 (stereo not shown) [ATN, Atenolol]	5.81 10^−6 cm^2/s	0	24	47	63				
Cn1c(=O)c2c(ncn2C)n(C)c1=O [CAF, caffeine]	9.07 10^−6 cm^2/s	0	33	51	67	0			
C[C@]12CCC(=O)C=C1CC[C@@H]1[C@@H]2[C@@H](O)C[C@@]2(C)[C@H]1CC[C@]2(O)C(=O)CO [HYD, hydrocortisone]	6.44 10^−6 cm^2/s	0	17	36	37	0	12.6	impaired to a higher extent; also recorded: slow down the diffusion	comparable to the one in phosphate buffer; also recorded: not hindered compared to phosphate buffer
COc1ccc2cc([C@H](C)C(=O)O)ccc2c1 [NPR, naproxen]	8.02 10^−6 cm^2/s	0	25	53	65				
